Assay results from PMC10144222 (Marine Drugs, 2023).
pIC50: −log10 of the molar value.

Legend:
[1] = tested on: coordinated locomotion in mice; details: mouse, in vivo
[2] = type: physicochemical; details: pH 7.4
[3] = tested on: tremor in mice; details: mouse, in vivo
[4] = biological target: Cav2.2 channel (Homo sapiens, UniProt Q00975); experiment: cell-based; type: cell-based
[5] = in vitro; details: human, serum

Sequence of Cav2.2 channel (Q00975 whole entry, looked up): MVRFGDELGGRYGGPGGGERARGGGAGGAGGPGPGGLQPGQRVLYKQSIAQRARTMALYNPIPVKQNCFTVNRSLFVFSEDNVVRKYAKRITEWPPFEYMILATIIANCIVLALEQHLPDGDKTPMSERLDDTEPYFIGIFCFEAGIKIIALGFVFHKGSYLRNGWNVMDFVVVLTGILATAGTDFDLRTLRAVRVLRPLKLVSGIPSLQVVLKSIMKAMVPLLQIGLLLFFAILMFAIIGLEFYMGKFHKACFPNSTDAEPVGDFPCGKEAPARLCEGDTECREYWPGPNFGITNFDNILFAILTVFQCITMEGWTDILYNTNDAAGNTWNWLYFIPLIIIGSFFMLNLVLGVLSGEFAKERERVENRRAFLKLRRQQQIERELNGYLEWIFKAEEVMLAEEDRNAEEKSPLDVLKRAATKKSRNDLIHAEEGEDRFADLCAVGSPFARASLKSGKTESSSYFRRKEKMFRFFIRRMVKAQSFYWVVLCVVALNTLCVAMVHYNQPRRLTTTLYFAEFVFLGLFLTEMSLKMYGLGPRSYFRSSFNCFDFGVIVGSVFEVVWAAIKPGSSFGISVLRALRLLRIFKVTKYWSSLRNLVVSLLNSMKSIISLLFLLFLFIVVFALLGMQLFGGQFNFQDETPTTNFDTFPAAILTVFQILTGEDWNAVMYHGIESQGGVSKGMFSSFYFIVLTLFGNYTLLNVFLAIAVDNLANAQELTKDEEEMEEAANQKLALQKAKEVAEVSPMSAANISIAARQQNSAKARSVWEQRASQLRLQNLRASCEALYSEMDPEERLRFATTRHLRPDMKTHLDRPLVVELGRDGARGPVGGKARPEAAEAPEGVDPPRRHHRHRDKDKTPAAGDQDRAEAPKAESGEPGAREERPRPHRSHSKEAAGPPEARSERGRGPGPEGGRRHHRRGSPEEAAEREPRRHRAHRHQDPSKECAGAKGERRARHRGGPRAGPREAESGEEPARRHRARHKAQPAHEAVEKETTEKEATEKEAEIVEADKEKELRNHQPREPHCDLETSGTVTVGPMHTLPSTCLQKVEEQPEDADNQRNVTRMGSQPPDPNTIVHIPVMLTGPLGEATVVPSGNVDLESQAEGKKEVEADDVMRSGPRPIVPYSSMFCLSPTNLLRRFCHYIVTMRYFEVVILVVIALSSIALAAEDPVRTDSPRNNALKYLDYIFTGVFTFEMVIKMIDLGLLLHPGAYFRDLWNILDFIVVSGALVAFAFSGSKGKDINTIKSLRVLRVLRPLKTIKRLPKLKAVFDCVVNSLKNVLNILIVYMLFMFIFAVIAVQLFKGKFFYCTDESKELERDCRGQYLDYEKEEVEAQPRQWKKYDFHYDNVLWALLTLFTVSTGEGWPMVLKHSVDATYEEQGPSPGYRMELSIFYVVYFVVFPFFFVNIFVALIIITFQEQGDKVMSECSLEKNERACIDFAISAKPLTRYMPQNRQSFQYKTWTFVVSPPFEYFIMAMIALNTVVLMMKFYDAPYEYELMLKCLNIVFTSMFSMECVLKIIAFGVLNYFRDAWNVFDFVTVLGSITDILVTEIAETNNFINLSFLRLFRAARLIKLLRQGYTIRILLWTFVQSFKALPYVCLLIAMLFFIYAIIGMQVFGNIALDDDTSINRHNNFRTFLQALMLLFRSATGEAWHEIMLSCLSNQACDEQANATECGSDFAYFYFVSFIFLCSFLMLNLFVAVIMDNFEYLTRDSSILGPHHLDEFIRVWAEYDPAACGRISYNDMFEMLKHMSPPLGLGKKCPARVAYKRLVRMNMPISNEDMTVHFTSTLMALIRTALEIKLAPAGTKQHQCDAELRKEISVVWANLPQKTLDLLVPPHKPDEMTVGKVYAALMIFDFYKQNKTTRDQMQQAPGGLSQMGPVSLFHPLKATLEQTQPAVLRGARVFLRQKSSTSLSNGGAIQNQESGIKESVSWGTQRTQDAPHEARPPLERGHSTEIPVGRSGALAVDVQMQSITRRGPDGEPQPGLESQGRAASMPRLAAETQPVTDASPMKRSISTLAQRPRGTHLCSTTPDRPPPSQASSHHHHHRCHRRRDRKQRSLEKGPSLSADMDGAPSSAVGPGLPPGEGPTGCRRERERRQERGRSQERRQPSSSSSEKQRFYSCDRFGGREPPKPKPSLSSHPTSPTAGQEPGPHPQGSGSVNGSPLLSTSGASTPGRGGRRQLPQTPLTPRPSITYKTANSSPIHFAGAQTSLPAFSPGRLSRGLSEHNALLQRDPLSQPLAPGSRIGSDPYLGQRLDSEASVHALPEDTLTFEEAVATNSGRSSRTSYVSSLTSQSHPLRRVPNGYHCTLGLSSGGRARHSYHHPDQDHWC

SMILES	effect on coordinated locomotion [1]	particle size (dynamic light scattering) [2]	tremor intensity (4-point scale 0-3) [3]	reduction of ICa amplitude [4]	pIC50 [4]	remaining at 24 h [5]
CSCC[C@@H]1NC(=O)[C@H](CC(C)C)NC(=O)[C@H](CCCNC(=N)N)NC(=O)[C@H](CO)NC(=O)[C@@H]2CSSC[C@@H]3NC(=O)[C@H](CO)NC(=O)CNC(=O)[C@H]([C@@H](C)O)NC(=O)[C@H](CSSC[C@H](N)C(=O)N[C@@H](CCCCN)C(=O)NCC(=O)N[C@@H](CCCCN)C(=O)NCC(=O)N[C@@H](C)C(=O)N[C@@H](CCCCN)C(=O)N2)NC(=O)[C@H](CSSC[C@@H](C(N)=O)NC(=O)[C@H](CCCCN)NC(=O)CNC(=O)[C@H](CO)NC(=O)[C@H](CCCNC(=N)N)NC3=O)NC(=O)[C@H](CC(=O)O)NC(=O)[C@H](Cc2ccc(O)cc2)NC1=O [MVIIA, ω-conotoxin MVIIA, reference compound]	significant at 30–60 min and gradually decreased from 2 to 4 h	48.74 ± 16.07 nm	highest tremor intensity at 30–60 min, after which it gradually decreased	100.00 ± 0.00%	–	–
CCCCCCCCCCCCCC(=O)N[C@H]1CSSC[C@@H]2NC(=O)[C@@H]3CSSC[C@@H](C(N)=O)NC(=O)[C@H](CCCCN)NC(=O)CNC(=O)[C@H](CO)NC(=O)[C@H](CCCNC(=N)N)NC(=O)[C@H](CSSC[C@H](NC(=O)[C@H](CCCCN)NC(=O)[C@H](C)NC(=O)CNC(=O)[C@H](CCCCN)NC(=O)CNC(=O)[C@H](CCCCN)NC1=O)C(=O)N[C@@H](CO)C(=O)N[C@@H](CCCNC(=N)N)C(=O)N[C@@H](CC(C)C)C(=O)N[C@@H](CCSC)C(=O)N[C@@H](Cc1ccc(O)cc1)C(=O)N[C@@H](CC(=O)O)C(=O)N3)NC(=O)[C@H](CO)NC(=O)CNC(=O)[C@H]([C@@H](C)O)NC2=O [Myr-MVIIA]	did not affect coordinated locomotion	–	no tremor symptoms	66.83 ± 0.16%	7.04	67.8%
